Assays:
Stat5b = biological target: T1, Stat5b (Homo sapiens, UniProt P51692); experiment: Stat5b transcriptional activity, beta-casein promoter luciferase reporter gene assay in PC-3 cells; assay type: cell-based; details: varying concentration
T1 construct: expressed in transfected cells; host or cells: PC-3 human prostate cancer cells
T1 sequence (P51692 1-787): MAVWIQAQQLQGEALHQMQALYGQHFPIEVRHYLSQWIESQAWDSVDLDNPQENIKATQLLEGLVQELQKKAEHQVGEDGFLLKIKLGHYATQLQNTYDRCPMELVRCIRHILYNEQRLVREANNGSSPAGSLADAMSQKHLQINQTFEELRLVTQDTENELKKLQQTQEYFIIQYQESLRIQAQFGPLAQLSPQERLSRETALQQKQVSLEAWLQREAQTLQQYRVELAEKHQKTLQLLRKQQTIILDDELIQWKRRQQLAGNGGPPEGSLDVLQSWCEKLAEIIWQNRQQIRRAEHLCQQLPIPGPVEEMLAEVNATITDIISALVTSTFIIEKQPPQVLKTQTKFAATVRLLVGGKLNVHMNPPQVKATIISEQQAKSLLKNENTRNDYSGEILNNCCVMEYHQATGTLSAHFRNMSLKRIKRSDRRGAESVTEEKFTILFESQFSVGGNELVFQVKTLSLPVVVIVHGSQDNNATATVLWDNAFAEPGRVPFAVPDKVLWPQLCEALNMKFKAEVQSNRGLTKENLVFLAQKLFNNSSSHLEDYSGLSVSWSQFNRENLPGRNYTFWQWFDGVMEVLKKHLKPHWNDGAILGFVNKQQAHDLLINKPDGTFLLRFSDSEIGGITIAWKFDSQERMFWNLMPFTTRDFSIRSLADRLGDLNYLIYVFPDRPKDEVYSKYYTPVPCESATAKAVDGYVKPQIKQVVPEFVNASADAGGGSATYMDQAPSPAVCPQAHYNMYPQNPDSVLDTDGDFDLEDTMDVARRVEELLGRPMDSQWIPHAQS
Protocol: Cells of the human prostate cell line PC-3 were plated into 96-well plate at the density of 2×10^5 per well. After 24 hours of plating, cells were transiently co-transfected using FuGENE6 (Roche) with 0.25 μg of each of pStat5a or pStat5b, pPrlR (prolactin receptor) plasmids, 0.5 μg of pBeta-casein-luc and 0.025 μg of pRL-TK (Renilla luciferase) plasmids as an internal control. After another 24 hours of transfection, the cells were starved in serum-free medium for 8 hours, pretreated with N^6-benzyladenosine (“N6BA”), or the control compound C5, for 1 hour, and then stimulated with 10 nM human prolactin (hPrl) in the serum-free medium for additional 16 hours. The lysates were assayed for firefly and Renilla luciferase activities using the Dual-Luciferase reporter assay system (Promega). Three independent experiments were carried out in triplicate. The firefly luciferase activity was normalized to the Renilla luciferase activity of the same sample, and the mean was calculated from the parallels. From the mean values of each independent run, the overall mean and its standard deviation (S.D.) were calculated.

Stat5a = biological target: T2, Stat5a (Homo sapiens, UniProt P42229); experiment: Stat5a transcriptional activity, beta-casein promoter luciferase reporter gene assay in PC-3 cells; assay type: cell-based; parameters: expressed in transfected cells; host or cells: PC-3 human prostate cancer cells; details: 1 hour pretreatment, then 10 nM hPrl 16 hours
T2 sequence (P42229 1-794): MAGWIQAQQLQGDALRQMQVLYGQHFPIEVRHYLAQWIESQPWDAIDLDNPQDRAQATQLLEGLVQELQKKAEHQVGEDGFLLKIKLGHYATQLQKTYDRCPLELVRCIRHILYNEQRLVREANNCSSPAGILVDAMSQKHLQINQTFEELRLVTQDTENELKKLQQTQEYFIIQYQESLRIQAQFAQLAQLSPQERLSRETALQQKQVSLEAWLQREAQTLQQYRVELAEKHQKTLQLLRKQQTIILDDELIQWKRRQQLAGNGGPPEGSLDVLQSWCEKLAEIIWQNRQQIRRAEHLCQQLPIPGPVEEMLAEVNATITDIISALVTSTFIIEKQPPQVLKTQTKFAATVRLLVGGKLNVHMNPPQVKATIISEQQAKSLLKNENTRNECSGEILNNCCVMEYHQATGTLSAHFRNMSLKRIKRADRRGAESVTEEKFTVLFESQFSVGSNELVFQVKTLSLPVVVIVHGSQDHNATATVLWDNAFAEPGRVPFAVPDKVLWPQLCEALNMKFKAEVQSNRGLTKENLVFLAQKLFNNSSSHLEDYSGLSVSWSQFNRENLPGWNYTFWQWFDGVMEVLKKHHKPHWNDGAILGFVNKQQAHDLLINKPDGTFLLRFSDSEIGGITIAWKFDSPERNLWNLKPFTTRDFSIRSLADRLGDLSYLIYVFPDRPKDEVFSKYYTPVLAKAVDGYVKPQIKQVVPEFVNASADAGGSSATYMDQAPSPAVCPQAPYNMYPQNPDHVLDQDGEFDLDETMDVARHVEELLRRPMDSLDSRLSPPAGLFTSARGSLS
Protocol: Cells of the human prostate cell line PC-3 were plated into 96-well plate at the density of 2×10^5 per well. After 24 hours of plating, cells were transiently co-transfected using FuGENE6 (Roche) with 0.25 μg of each of pStat5a, pPrlR (prolactin receptor) plasmids, 0.5 μg of pBeta-casein-luc and 0.025 μg of pRL-TK (Renilla luciferase) plasmids as an internal control. After another 24 hours of transfection, the cells were starved in serum-free medium for 8 hours, pretreated with (2R,3R,4S,5R)-2-(6-(3,4-dihydroisoquinolin-2(1H)-yl)-9H-purin-9-yl)-5-(hydroxymethyl)tetrahydrofuran-3,4-diol (Compound 1) or (2R,3S,4R,5R)-2-(hydroxymethyl)-5-(6-(2-phenylhydrazinyl)-9H-purin-9-yl)tetrahydrofuran-3,4-diol (Compound 2), for 1 hour, and then stimulated with 10 nM human prolactin (hPrl) in the serum-free medium for additional 16 hours. The lysates were assayed for firefly and Renilla luciferase activities using the Dual-Luciferase reporter assay system (Promega). The firefly luciferase activity was normalized to the Renilla luciferase activity of the same sample, and the mean was calculated from the parallels. From the mean values of each independent run, the overall mean and its standard deviation (S.D.) were calculated.
(§1) Cells of the human prostate cell line PC-3 were plated into 96-well plate at the density of 2×10^5 per well. […] The firefly luciferase activity was normalized to the Renilla luciferase activity of the same sample, and the mean was calculated from the parallels. From the mean values of each independent run, the overall mean and its standard deviation (S.D.) were calculated.
as §1

OC[C@H]1O[C@@H](n2cnc3c(NNc4ccccc4)ncnc32)[C@H](O)[C@@H]1O [Compound 2, (2R,3S,4R,5R)-2-(hydroxymethyl)-5-(6-(2-phenylhydrazinyl)-9H-purin-9-yl)tetrahydrofuran-3,4-diol]
effect on transcriptional activity of Stat5b (Stat5b): inhibited Stat5a and Stat5b transcriptional activity in a concentration-dependent manner | effect on transcriptional activity of Stat5a (Stat5a): effectively block the transcriptional activity of Stat5a

OC[C@H]1O[C@@H](n2cnc3c(N4CCc5ccccc5C4)ncnc32)[C@H](O)[C@@H]1O [Compound 1, (2R,3R,4S,5R)-2-(6-(3,4-Dihydroisoquinolin-2(1H)-yl)-9H-purin-9-yl)-5-(hydroxymethyl)tetrahydrofuran-3,4-diol]
effect on transcriptional activity of Stat5b (Stat5b): inhibited Stat5a and Stat5b transcriptional activity in a concentration-dependent manner | effect on transcriptional activity of Stat5a (Stat5a): effectively block the transcriptional activity of Stat5a

OC[C@H]1O[C@@H](n2cnc3c(NCc4ccccc4)ncnc32)[C@H](O)[C@@H]1O [Compound N6BA, N^6-benzyladenosine]
effect on transcriptional activity of Stat5b (Stat5b): inhibited Stat5 transcriptional activity in a concentration-dependent manner | effect on transcriptional activity of Stat5a (Stat5a): inhibits transcriptional activity of Stat5

— patent US20150209379A1, “TREATMENT OF PROSTATE CANCER AND HEMATOLOGIC NEOPLASMS” (THOMAS JEFFERSON UNIVERSITY, priority 2012, published 2015)
